# In patent publication US11560400B2, “Salts of diphosphate phosphoramidate of nucleosides as anticancer compounds” (NuCana plc, priority 2017, dated 2023):
# Counter-ions that a name gives are not always drawn.
# Tests used:
# [1] = tested on: OVCAR 3; assay: CellTiterGlo cell viability assay, OVCAR 3; type: cell-based; conditions: Homo sapiens; for inhibition at 198 µM: OVCAR-3, 72 h, percentage inhibition at the highest concentration tested, read-out: Top Inhibit; for EC50: OVCAR 3, 72 h, Table 4 classes, read-out: Ab EC50
# Description: (§1) A subset of compounds of the invention were assayed for their cytotoxic activity in an array of different solid tumours and haematological malignancies using the following assay.
# (§2) In vitro viability assay were performed to assess the effects of compounds on cell viability in selected cell lines over 72 h using the CellTiterGlo (CTG, Promega-G7573) assay. The tests were performed in duplicates with treatment of compounds at 9 points, 3.16 folds titration in 96 well plates over ˜72 h. The compound starting concentrations were 198 μM. Cell viability assay using CellTiterGlo in 96-well plate were performed. Compound treatment 72 h, standard growth conditions, duplicates. Compounds were dissolved to 40 mM with thawed […]. Compounds were serially diluted at 3.16 fold in thawed DMSO, and warmed to 37° C. before being dissolved in media (2 μL+200 μL). After compounds were dissolved in media, media containing compounds were warmed to 37° C. in incubator and then compounds in media were added to cell plates (50 μL+50 μL) in duplicates. The compounds' final concentrations were from 198 μM to 19.8 nM. All compound solubilities were checked and recorded again, then the plates were transferred to CO2 tissue culture incubator immediately and incubated for 3 days. DMSO final concentration is 0.5%. The parent nucleoside in each case was tested as a comparator, as was an exemplary ProTide. The drugs of the ProTide class that were tested were as follows:
# (§3) The following cell lines were tested and are referred to in the Table 1 below:
# (§4) In Tables 2, 3 and 4, ‘Ab EC50’ refers to the absolute EC50 and ‘Top inhibit’ refers to the percentage inhibition achieved at the highest concentration tested.
# [2] = tested on: MCF-7; assay: CellTiterGlo cell viability assay, MCF-7; type: cell-based; conditions: Homo sapiens, MCF7, 72 h, MCF-7, 72 h, percentage inhibition at the highest concentration tested; read-out: Top Inhibit
# Description: as §1, §2, §3, §4
# [3] = tested on: HT29; assay: CellTiterGlo cell viability assay, HT29; type: cell-based; conditions: Homo sapiens, HT-29, 72 h, HT29, 72 h; for EC50: Table 4 classes, read-out: Ab EC50; for inhibition at 198 µM: percentage inhibition at the highest concentration tested, read-out: Top Inhibit
# Description: as §1, §2, §3, §4
# [4] = tested on: HL-60; assay: CellTiterGlo cell viability assay, HL-60; type: cell-based; conditions: Homo sapiens, HL-60, 72 h; for EC50: Table 4 classes, read-out: Ab EC50; for inhibition at 198 µM: percentage inhibition at the highest concentration tested, read-out: Top Inh
# Description: as §1, §2, §3, §4
# [5] = tested on: HepG2; assay: CellTiterGlo cell viability assay, HepG2; type: cell-based; conditions: Homo sapiens, HepG2, 72 h; for EC50: Table 4 classes, read-out: Ab EC50; for inhibition at 198 µM: percentage inhibition at the highest concentration tested, read-out: Top Inhibit
# Description: as §1, §2, §3, §4
# [6] = tested on: RL; assay: CellTiterGlo cell viability assay, RL; type: cell-based; conditions: Homo sapiens, 72 h; for inhibition at 198 µM: percentage inhibition at the highest concentration tested, read-out: Top Inh; for EC50: Table 4 classes, read-out: Ab EC50
# Description: as §1, §2, §3, §4
# [7] = tested on: MOLT-4; assay: CellTiterGlo cell viability assay, MOLT-4; type: cell-based; conditions: Homo sapiens, MOLT-4, 72 h; for inhibition at 198 µM: percentage inhibition at the highest concentration tested, read-out: Top Inh; for EC50: Table 4 classes, read-out: Ab EC50
# Description: as §1, §2, §3, §4
# [8] = tested on: CCRF-CEM; assay: CellTiterGlo cell viability assay, CCRF-CEM; type: cell-based; conditions: Homo sapiens, 72 h; for EC50: Table 4 classes, read-out: Ab EC50; for inhibition at 198 µM: percentage inhibition at the highest concentration tested, read-out: Top Inh
# Description: as §1, §2, §3, §4
# [9] = tested on: RPMI-8226; assay: CellTiterGlo cell viability assay, RPMI-8226; type: cell-based, Human; conditions: Homo sapiens, RPMI-8226, 72 h; for EC50: Table 4 classes, read-out: Ab EC50; for inhibition at 198 µM: percentage inhibition at the highest concentration tested, read-out: Top Inh
# Description: as §1, §2, §3, §4
# [10] = tested on: KG-1; assay: CellTiterGlo cell viability assay, KG-1; type: cell-based; conditions: Homo sapiens, KG-1, 72 h; for EC50: Table 4 classes, read-out: Ab EC50; for inhibition at 198 µM: percentage inhibition at the highest concentration tested, read-out: Top Inhibit
# Description: as §1, §2, §3, §4
# [11] = tested on: K562; assay: CellTiterGlo cell viability assay, K562; type: cell-based; conditions: Homo sapiens; for inhibition at 198 µM: K562, 72 h, percentage inhibition at the highest concentration tested, read-out: Top Inh; for EC50: K562, K 562, 72 h, Table 4 classes, read-out: Ab EC50
# Description: as §1, §2, §3, §4
SMILES,inhibition at 198 µM [1],EC50 [1],inhibition at 198 µM [2],EC50 [3],inhibition at 198 µM [3],EC50 [4],inhibition at 198 µM [4],EC50 [5],inhibition at 198 µM [5],inhibition at 198 µM [6],inhibition at 198 µM [7],EC50 [7],EC50 [8],inhibition at 198 µM [8],EC50 [9],inhibition at 198 µM [9],EC50 [10],inhibition at 198 µM [10],inhibition at 198 µM [11],EC50 [11],other results
"CCCCCCOC(=O)[C@H](C)NP(=O)(Oc1ccccc1)OP(=O)(O)OC[C@H]1O[C@@H](n2cnc3c(N)nc(Cl)nc32)[C@H](F)C1O (stereo partly drawn) [Example 18, 2-Chloro-9-(2′-Deoxy-2′-fluoro-β-D-arabinofuranosyl)adenine-5′-O-[1-phenyl(hexoxy-L-alaninyl)] Diphosphate Triethylammonium Salt]",47%,> 10000 nM,44%,200 to 1000 nM,66%,< 200 nM,96%,200 to 1000 nM,53%,48%,88%,< 200 nM,< 200 nM,99%,> 10000 nM,84%,< 200 nM,91%,40%,> 10000 nM,
"C[C@H](NP(=O)(Oc1cccc2c1CCCC2)OP(=O)(O)OC[C@H]1O[C@@H](n2cnc3c(N)nc(Cl)nc32)[C@H](F)C1O)C(=O)OCc1ccccc1 (stereo partly drawn) [Example 19, 2-Chloro-9-(2′-Deoxy-2′-fluoro-β-D-arabinofuranosyl)adenine-5′-O-[1-5,6,7,8-tetrahydro-1-naphthyl(benzoxy-L-alaninyl)] Diphosphate Triethylammonium Salt]",51%,> 10000 nM,47%,200 to 1000 nM,68%,< 200 nM,95%,200 to 1000 nM,51%,57%,90%,< 200 nM,< 200 nM,99%,> 10000 nM,79%,< 200 nM,92%,37%,> 10000 nM,EC50 [6]: 200 to 1000 nM
"CCOP(=O)(N[C@@H](C)C(=O)OCc1ccccc1)OP(=O)(O)OC[C@H]1O[C@@H](n2cnc3c(N)nc(Cl)nc32)[C@H](F)C1O (stereo partly drawn) [Example 20, 2-Chloro-9-(2′-Deoxy-2′-fluoro-β-D-arabinofuranosyl)adenine-5′-O-[1-ethyl(benzoxy-L-alaninyl)] Diphosphate Triethylammonium Salt]",49%,> 10000 nM,48%,200 to 1000 nM,69%,< 200 nM,96%,200 to 1000 nM,54%,69%,89%,< 200 nM,< 200 nM,99%,> 10000 nM,80%,< 200 nM,92%,35%,> 10000 nM,EC50 [6]: 200 to 1000 nM
"CC(C)C[C@H](NP(=O)(Oc1ccccc1)OP(=O)(O)OC[C@H]1O[C@@H](n2cnc3c(N)nc(Cl)nc32)[C@H](F)C1O)C(=O)OCc1ccccc1 (stereo partly drawn) [Example 21, 2-Chloro-9-(2′-Deoxy-2′-fluoro-β-D-arabinofuranosyl)adenine-5′-O-[1-phenyl(benzoxy-L-leucinyl)] Diphosphate Triethylammonium Salt]",47%,> 10000 nM,49%,200 to 1000 nM,69%,< 200 nM,96%,200 to 1000 nM,53%,70%,90%,< 200 nM,< 200 nM,99%,> 10000 nM,81%,< 200 nM,92%,32%,> 10000 nM,EC50 [6]: 1000 to 5000 nM
